Patent US10167262B2, “Herbicidal substituted 3-arylpyrazoles” (FMC CORPORATION, priority 2014, dated 2019)

Tests used:
Experiment in all cases: Test E pre-/postemergence greenhouse test, plant response rating 0-100
Type in all cases: in vivo
[1] = system: Brazilian crabgrass (Digitaria horizontalis); settings: scale 0 to 100; for Plant response rating, Crabgrass, Brazil: Postemergence; for Crabgrass, Brazil plant response rating: Preemergence
Method in brief: (§1)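 Seeds sown in silt loam soil received preemergence treatment with compound in a non-phytotoxic solvent mixture containing surfactant. Postemergence, plants at 2–18 cm (1- to 4-leaf stage) in peat/vermiculite medium were sprayed with the same formulation. Visual injury versus untreated controls was rated 0–100 after 14 to 21 days in the greenhouse.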

[2] = system: arrowleaf sida (Sida rhombifolia); settings: for Plant response rating, Arrowleaf Sida: Postemergence; for Arrowleaf Sida plant response rating: Preemergence
Method in brief: as §1

corn (Zea mays) = settings: scale 0 to 100; for Plant response rating, Corn: Postemergence; for Corn plant response rating: Preemergence
Method in brief: as §1

[3] = system: dayflower (Virginia (VA) dayflower, Commelina virginica); settings: scale 0 to 100; for Plant response rating, Dayflower, VA: Postemergence; for Dayflower, VA plant response rating: Preemergence
Method in brief: as §1

[4] = system: fall panicum (Panicum dichotomiflorum); settings: scale 0 to 100; for Plant response rating, Panicum, Fall: Postemergence; for Panicum, Fall plant response rating: Preemergence
Method in brief: as §1

[5] = system: field bindweed (Convolvulus arvensis); settings: scale 0 to 100; for Plant response rating, Field Bindweed: Postemergence; for Field Bindweed plant response rating: Preemergence
Method in brief: as §1

[6] = system: hairy beggarticks (Bidens pilosa); settings: scale 0 to 100; for Plant response rating, Beggarticks: Postemergence; for Beggarticks plant response rating: Preemergence
Method in brief: as §1

[7] = system: palmer pigweed (Amaranthus palmeri); settings: scale 0 to 100; for Plant response rating, Pigweed, Palmer: Postemergence; for Pigweed, Palmer plant response rating: Preemergence
Method in brief: as §1

[8] = system: sandbur (southern sandbur, Cenchrus echinatus); settings: scale 0 to 100; for Plant response rating, Sandbur: Postemergence; for Sandbur plant response rating: Preemergence
Method in brief: as §1

soybean (Glycine max) = settings: scale 0 to 100; for Plant response rating, Soybean: Postemergence; for Soybean plant response rating: Preemergence
Method in brief: as §1

[9] = system: waterhemp (common waterhemp, Amaranthus rudis); settings: scale 0 to 100; for Plant response rating, Waterhemp: Postemergence; for Waterhemp plant response rating: Preemergence
Method in brief: as §1

[10] = system: wild poinsettia (Euphorbia heterophylla); settings: scale 0 to 100; for Plant response rating, Poinsettia, Wild: Postemergence; for Poinsettia, Wild plant response rating: Preemergence
Method in brief: as §1

## O=Cn1cc(C(=O)c2ccccc2)c(-c2cc(Cl)cc(Cl)c2)n1 [Compound 28]
[1]; 31 g ai/ha
  Plant response rating, Crabgrass, Brazil: 0
  Crabgrass, Brazil plant response rating: 0
[1]; 62 g ai/ha
  Plant response rating, Crabgrass, Brazil: 0
  Crabgrass, Brazil plant response rating: 0
[1]; 125 g ai/ha
  Plant response rating, Crabgrass, Brazil: 0
  Crabgrass, Brazil plant response rating: 0
[1]; 250 g ai/ha
  Plant response rating, Crabgrass, Brazil: 0
  Crabgrass, Brazil plant response rating: 35
[1]; 500 g ai/ha
  Plant response rating, Crabgrass, Brazil: 0
  Crabgrass, Brazil plant response rating: 65
[2]; 31 g ai/ha, scale 0 to 100
  Plant response rating, Arrowleaf Sida: 65
  Arrowleaf Sida plant response rating: 0
[2]; 62 g ai/ha, scale 0 to 100
  Plant response rating, Arrowleaf Sida: 60
  Arrowleaf Sida plant response rating: 20
[2]; 125 g ai/ha, scale 0 to 100
  Plant response rating, Arrowleaf Sida: 75
  Arrowleaf Sida plant response rating: 75
[2]; 250 g ai/ha, scale 0 to 100
  Plant response rating, Arrowleaf Sida: 85
  Arrowleaf Sida plant response rating: 90
[2]; 500 g ai/ha, scale 0 to 100 (0 no effect, 100 complete control)
  Plant response rating, Arrowleaf Sida: 90
[2]; 500 g ai/ha, scale 0 to 100
  Arrowleaf Sida plant response rating: 100
Corn (Zea mays); 31 g ai/ha
  Plant response rating, Corn: 0
  Corn plant response rating: 0
Corn (Zea mays); 62 g ai/ha
  Plant response rating, Corn: 0
  Corn plant response rating: 0
Corn (Zea mays); 125 g ai/ha
  Plant response rating, Corn: 0
  Corn plant response rating: 0
Corn (Zea mays); 250 g ai/ha
  Plant response rating, Corn: 0
  Corn plant response rating: 0
Corn (Zea mays); 500 g ai/ha
  Plant response rating, Corn: 0
  Corn plant response rating: 0
[3]; 31 g ai/ha
  Plant response rating, Dayflower, VA: 0
  Dayflower, VA plant response rating: 0
[3]; 62 g ai/ha
  Plant response rating, Dayflower, VA: 0
  Dayflower, VA plant response rating: 0
[3]; 125 g ai/ha
  Plant response rating, Dayflower, VA: 0
  Dayflower, VA plant response rating: 0
[3]; 250 g ai/ha
  Plant response rating, Dayflower, VA: 0
  Dayflower, VA plant response rating: 0
[3]; 500 g ai/ha
  Plant response rating, Dayflower, VA: 0
  Dayflower, VA plant response rating: 0
[4]; 31 g ai/ha
  Plant response rating, Panicum, Fall: 0
  Panicum, Fall plant response rating: 0
[4]; 62 g ai/ha
  Plant response rating, Panicum, Fall: 0
  Panicum, Fall plant response rating: 0
[4]; 125 g ai/ha
  Plant response rating, Panicum, Fall: 0
  Panicum, Fall plant response rating: 0
[4]; 250 g ai/ha
  Plant response rating, Panicum, Fall: 0
  Panicum, Fall plant response rating: 0
[4]; 500 g ai/ha
  Plant response rating, Panicum, Fall: 0
  Panicum, Fall plant response rating: 0
[5]; 31 g ai/ha
  Plant response rating, Field Bindweed: 0
  Field Bindweed plant response rating: 0
[5]; 62 g ai/ha
  Plant response rating, Field Bindweed: 0
  Field Bindweed plant response rating: 0
[5]; 125 g ai/ha
  Plant response rating, Field Bindweed: 0
  Field Bindweed plant response rating: 0
[5]; 250 g ai/ha
  Plant response rating, Field Bindweed: 10
  Field Bindweed plant response rating: 0
[5]; 500 g ai/ha
  Plant response rating, Field Bindweed: 20
  Field Bindweed plant response rating: 0
[6]; 31 g ai/ha
  Plant response rating, Beggarticks: 80
  Beggarticks plant response rating: 0
[6]; 62 g ai/ha
  Plant response rating, Beggarticks: 90
  Beggarticks plant response rating: 0
[6]; 125 g ai/ha
  Plant response rating, Beggarticks: 95
  Beggarticks plant response rating: 40
[6]; 250 g ai/ha
  Plant response rating, Beggarticks: 98
  Beggarticks plant response rating: 70
[6]; 500 g ai/ha
  Plant response rating, Beggarticks: 98
  Beggarticks plant response rating: 70
[7]; 31 g ai/ha
  Plant response rating, Pigweed, Palmer: 50
  Pigweed, Palmer plant response rating: 0
[7]; 62 g ai/ha
  Plant response rating, Pigweed, Palmer: 70
  Pigweed, Palmer plant response rating: 0
[7]; 125 g ai/ha
  Plant response rating, Pigweed, Palmer: 70
  Pigweed, Palmer plant response rating: 0
[7]; 250 g ai/ha
  Plant response rating, Pigweed, Palmer: 80
  Pigweed, Palmer plant response rating: 25
[7]; 500 g ai/ha
  Plant response rating, Pigweed, Palmer: 90
  Pigweed, Palmer plant response rating: 100
[8]; 31 g ai/ha
  Plant response rating, Sandbur: 0
  Sandbur plant response rating: 0
[8]; 62 g ai/ha
  Plant response rating, Sandbur: 0
  Sandbur plant response rating: 0
[8]; 125 g ai/ha
  Plant response rating, Sandbur: 0
  Sandbur plant response rating: 0
[8]; 250 g ai/ha
  Plant response rating, Sandbur: 0
  Sandbur plant response rating: 0
[8]; 500 g ai/ha
  Plant response rating, Sandbur: 0
  Sandbur plant response rating: 0
Soybean (Glycine max); 31 g ai/ha
  Plant response rating, Soybean: 0
  Soybean plant response rating: 0
Soybean (Glycine max); 62 g ai/ha
  Plant response rating, Soybean: 0
  Soybean plant response rating: 0
Soybean (Glycine max); 125 g ai/ha
  Plant response rating, Soybean: 0
  Soybean plant response rating: 0
Soybean (Glycine max); 250 g ai/ha
  Plant response rating, Soybean: 0
  Soybean plant response rating: 0
Soybean (Glycine max); 500 g ai/ha
  Plant response rating, Soybean: 0
  Soybean plant response rating: 0
[9]; 31 g ai/ha
  Plant response rating, Waterhemp: 80
  Waterhemp plant response rating: 0
[9]; 62 g ai/ha
  Plant response rating, Waterhemp: 85
  Waterhemp plant response rating: 0
[9]; 125 g ai/ha
  Plant response rating, Waterhemp: 85
  Waterhemp plant response rating: 65
[9]; 250 g ai/ha
  Plant response rating, Waterhemp: 90
  Waterhemp plant response rating: 95
[9]; 500 g ai/ha
  Plant response rating, Waterhemp: 90
  Waterhemp plant response rating: 95
[10]; 31 g ai/ha
  Plant response rating, Poinsettia, Wild: 0
  Poinsettia, Wild plant response rating: 0
[10]; 62 g ai/ha
  Plant response rating, Poinsettia, Wild: 0
  Poinsettia, Wild plant response rating: 0
[10]; 125 g ai/ha
  Plant response rating, Poinsettia, Wild: 0
  Poinsettia, Wild plant response rating: 0
[10]; 250 g ai/ha
  Plant response rating, Poinsettia, Wild: 10
  Poinsettia, Wild plant response rating: 0
[10]; 500 g ai/ha
  Plant response rating, Poinsettia, Wild: 15
  Poinsettia, Wild plant response rating: 0
